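Five concentrations, 48 hours, 96-well plates. GI50 marks 50% less growth. At the TGI there is no net growth.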 Where a SMILES comes first, the peptide text is derived from it. Bridges are numbered along the chain shown (N, C = ends).
What was measured:
Test in all cases: inhibition of tumour cell growth, NCI panel, 48 h
[1] = tested on: K-562 leukemia
[2] = tested on: MALME-3M melanoma
[3] = tested on: COLO 205 colon
[4] = tested on: EKVX NSCLC
[5] = tested on: NCI-H23 lung
[6] = tested on: NCI-H226 lung
[7] = tested on: HOP-92 NSCLC
[8] = tested on: TK-10 renal
[9] = tested on: CCRF-CEM leukemia
[10] = tested on: BT-549 breast

| Structure (SMILES) | TGI [1] [µM] | TGI [2] [µM] | TGI [3] [µM] | TGI [4] [µM] | TGI [5] [µM] | TGI [6] [µM] | TGI [7] [µM] | TGI [8] [µM] | TGI [9] [µM] | GI50 [6] [µM] | TGI [10] [µM] |
| --- | --- | --- | --- | --- | --- | --- | --- | --- | --- | --- | --- |
| Cc1c(C(=O)O)sc2nc[nH]c(=O)c12 | > 100 | > 100 | > 100 | > 100 | > 100 | > 100 | > 100 | > 100 | – | – | – |
| N/C(=N\N=C/c1c(O)cc(O)cc1O)NO | > 100 | > 100 | > 100 | > 94.5 | > 100 | > 100 | > 100 | – | > 92.6 | – | – |
| CSCSCC(CO)NC(=O)/C=C\c1c(C)[nH]c(=O)[nH]c1=O (centres undefined) | 111 | 76.6 | 78.9 | 153 | 120 | 309 | 10.1 | – | 37.4 | 49.8 | – |
| COC(=O)C1CCC(=O)NCCCCC(NC(=O)C(N)CC(=O)O)C(=O)N1 (stereo not drawn) (H-Asp-Lys-Glu-OMe; lactam 2-3; configuration not given here) | > 100 | > 100 | > 100 | > 100 | > 100 | > 100 | – | > 100 | > 100 | – | > 100 |
| Cc1cc(NS(=O)(=O)c2ccc(Nc3c4ccccc4nc4c(C(=O)NC(CO)(CO)CO)cccc34)cc2)no1 | > 100 | 92.2 | > 100 | > 100 | > 100 | – | > 100 | 61.7 | 66.3 | – | 98.9 |
| CCOC(=O)c1c(SC(=O)c2ccc(Cl)cc2)n(-c2ccccc2)c(=S)n(-c2ccccc2)c1=O | > 100 | > 100 | > 100 | > 100 | > 100 | > 100 | > 100 | > 100 | > 100 | – | – |
| COc1ccc(NCn2nc(CCCCCCCCc3nn(CNc4ccc(OC)cc4)c(=S)o3)oc2=S)cc1 | > 100 | > 100 | > 100 | > 100 | > 100 | > 100 | > 100 | > 100 | – | – | > 100 |
| COc1ccc(C2C3=C(COC3=O)Oc3cc4c(cc32)OCO4)cc1OC (centres undefined) | > 26.8 | > 100 | 18.1 | > 38 | > 100 | > 100 | > 100 | > 100 | > 32.4 | – | – |
| CCC1OC2(C)CC(C#N)(C#N)C1(C#N)C(=N)O2 (centres undefined) | > 100 | > 100 | > 100 | > 100 | > 100 | – | > 100 | > 100 | > 100 | – | > 100 |
| Cc1ccc(N=Nc2c(O)ccc3ccccc23)c(C)c1 | > 100 | – | > 100 | – | > 100 | > 100 | > 100 | > 100 | – | – | > 100 |
| Cc1ccc(N2Cc3c(ccc4ccccc34)OP2(=S)N2CCCC2)cc1 (centres undefined) | > 100 | > 100 | > 100 | > 100 | > 100 | > 100 | > 100 | – | > 100 | – | – |
| O=C(Oc1cncc(Cl)c1)c1cc2ccccc2sc1=O | > 100 | > 100 | > 100 | > 100 | > 100 | 57.1 | > 100 | > 100 | – | – | > 100 |
| CSCCC(NC(=O)C(Cc1c[nH]c2ccccc12)NC(=O)CCNC(=O)OC(C)(C)C)C(=O)NC(CC(=O)O)C(=O)NC(Cc1ccccc1)C(N)=O (centres undefined) | > 50 | – | > 50 | > 50 | – | > 50 | > 50 | > 50 | > 50 | – | > 50 |
| C#CC(O)/C=C/C(O)CCCC(O)CC#CC(O)C#CCCCCC(O)/C=C/CCCC(=O)CCCCCCCCCCCCCCCC(O)C(O)C#CC(=O)O (centres undefined) | > 25 | > 25 | > 25 | > 25 | > 25 | > 25 | > 25 | > 25 | > 25 | – | – |
| CCOC(=O)C1=C(N2CCCC2)C(=O)C(C(=O)OCC)C1 (centres undefined) | > 100 | > 100 | > 100 | > 100 | > 100 | > 100 | > 100 | > 100 | – | – | > 100 |
| CN1Cc2ccccc2C2(COc3ccccc3C2=O)C1 (centres undefined) | > 100 | > 100 | – | > 100 | > 100 | > 100 | 93.6 | > 100 | > 100 | – | – |
| COc1ccc(-c2c(/C=N/OCC(=O)O)c3sc4ccccc4n3c2/C=N/OCC(=O)O)cc1 | > 50 | > 50 | > 50 | > 50 | > 50 | – | > 50 | > 50 | > 50 | – | > 50 |
| C/C(N=NS(=O)(=O)c1c(C)cc(C)cc1C)=C1\C=CC=CN1O | > 100 | – | – | > 100 | > 100 | – | > 100 | > 100 | > 100 | – | – |
| Nc1ccnc2c1ncn2[C@H]1C[C@H](O)[C@@H](CO)O1 | – | – | > 100 | > 100 | > 100 | > 100 | > 100 | > 100 | > 100 | – | > 100 |
| CN(C)Cc1cc(/C=C/C(=O)c2ccc(Br)cc2)cc(CN(C)C)c1O | > 100 | 31.6 | 30.1 | 55.2 | – | – | – | 25.7 | 25.4 | – | 34.4 |
| O=C(CCC(NC(=O)OCc1ccccc1)C(=O)OCc1ccccc1)Nc1cccc(OCc2ccccc2)c1 (centres undefined) | 52.2 | 56.4 | 31.9 | > 100 | 57.1 | > 100 | 75 | 90.3 | 99.4 | – | – |
| COc1ccc(/C=C/C(=O)c2cc(CN(C)C)c(O)c(CN(C)C)c2)cc1 | 70.7 | 54.2 | 32.5 | > 100 | > 100 | > 100 | – | > 100 | > 100 | – | 72.9 |
| Oc1c(NCn2nc(CCCCCCCCc3nn(CNc4ccc5ccccc5c4O)c(=S)o3)oc2=S)ccc2ccccc12 | > 100 | > 100 | > 100 | > 100 | > 100 | > 100 | > 100 | > 100 | – | – | > 100 |

Reference: PubChem BioAssay (NCI)
